This is an account of results in EP0428103A2, “Prevention of glycoprotein enveloped virus infectivity by pyridyloxazole-2-ones” (MERRELL DOW PHARMACEUTICALS INC., priority 1989, dated 1991).

Structures can show the parent of a compound that is named as a salt.

In one test the test system is HIV. Conditions: CD4+ cells, Fields, et al., Nature, Vol. 333, 19 May 1988, cited from earlier work.
Test [1] concerns Moloney murine leukemia virus (MoLV). The test is described as follows: in vitro XC plaque assay. Conditions: mouse SC-1 cells; for Mean No. of Foci: control 84 foci. The format is cell-based. How it is done:
This assay was performed according to the method of Rowe et al. (Virology, 1970, 42, 1136-39) as previously described by L. Hsu, et al. (J. Virological Methods, 1980, 1, 167-77) and T. L. Bowlin and M. R. Proffitt (J. Interferon Res., 1983, 3(1), 19-31). Mouse SC-1 cells (fibroblast) (10⁵) were seeded into each well of 6-well cluster plates (Costar #3506) in 4 ml Minimum Essential Medium (MEM) with 10% Fetal Calf Serum (FCS). Following an 18 hour incubation period (37°C), Moloney murine leukemia virus (MoLV) was applied at a predetermined titer to give optimal (i.e. countable) numbers of virus plaques. Compounds were added 2 hours prior to addition of the virus. Three days later the culture medium was removed, the SC-1 cell monolayers were exposed to UV irradiation (1800 ergs), and rat XC cells (10⁶) were seeded into each well in 4 ml MEM. Following an additional 3 day incubation (37°C), these cells were fixed with ethyl alcohol (95%) and stained with 0.3% crystal violet. Plaques were then counted under low magnification.

For a further test, the system named is RF strain of HIV-1. The test can be described thus: p24 antigen expression from HIV infected T-lymphocytes. The format is cell-based. The conditions noted are these: C8166 T cell line; for p24 Antigen: culture fluid after 3 days. How it is done: Cells (C8166 T cell line) were pretreated with test compounds at appropriate concentrations for 3 hours prior to virus (RF strain of HIV-1) absorption. Low multiplicity of infection was used and virus absorption period was 1 hour at room temperature. the cells were washed X1 in PBS and resuspended in fresh medium containing the appropriate concentrations of test compound. Cells incubated at 37°C and after 3 days culture fluid was assayed for p24 antigen as a measure of viral replication. Because these compounds were tested as the free base, they had to be taken up in DMSO and therefore a series of DMSO virus controls were needed for comparison.

For `CC1CNCCN1S(=O)(=O)c1cccc2cnccc12` (stereo not shown) [1,5-isoquinolinesulphonyl-2-methylpiperazine dihydrochloride], in the test on HIV, the “HIV cell surface binding” value is “does not interfere”. Besides, the viral infectivity entry with HIV (accumulation of virus particles at the cell surface) is on record as “inhibition of viral infectivity”.

As to `CCCc1[nH]c(=O)oc1-c1ccncc1` [Test Compound, 4-propyl-5-(4-pyridinyl)-2(3H)-oxazolone], the “Mean No. of Foci” value came to 85 in test [1] (0.10 µg/ml); 67 in test [1] (0.25 µg/ml); 68 in test [1] (0.5 µg/ml); 63 in test [1] (0.75 µg/ml); 33 in test [1] (1 µg/ml, compound added 2 hours prior to virus). The inhibition at 0.1 µg/mL in test [1] (Murine leukemia virus, SC1, 0.10 µg/ml) is 0%. In test [1] (Murine leukemia virus, SC1, 0.25 µg/ml), the inhibition at 0.25 µg/mL turned out to be 20%. In addition, testing at 0.5 µg/mL in test [1] (Murine leukemia virus, SC1, 0.5 µg/ml) gave an inhibition of 19%. In addition, the inhibition at 0.75 µg/mL in test [1] (Murine leukemia virus, SC1, 0.75 µg/ml) amounted to 25%. For the same compound, the inhibition at 1 µg/mL in test [1] (Murine leukemia virus, SC1, 1 µg/ml, compound added 2 hours prior to virus) amounted to 60.7%; in the test on RF strain of HIV-1 (Human immunodeficiency virus 1, 72 h, 1 µg/ml, DMSO 0.01 %, 3 days), 41%. Besides, the “p24 Antigen” value stood at 613 pg/mL with RF strain of HIV-1 (1 µg/ml, DMSO 0.01 %, vehicle control 1027 pg/ml) and 244 pg/mL in the test with RF strain of HIV-1 (10 µg/ml, DMSO 0.1 %, vehicle control 2408 pg/ml). In the test with RF strain of HIV-1 (Human immunodeficiency virus 1, 72 h, 10 µg/ml, DMSO 0.1 %, 3 days), this compound yielded an inhibition at 10 µg/mL of 90%.

One may read the inhibition as the share of the control response that was lost under treatment.
